Data as given in patent publication US8507471B2, “Biphenylcarboxamide derivatives as hedgehod pathway modulators” (IRM LLC, priority 2007, dated 2013).

What was measured:
[1] = test system: basal cell carcinoma lesions (basaloid nests) in embryonic skin punches; test: Embryonic skin punch assay (Shh-induced basaloid nests); type: cell-based, Ptch+/−-LacZ mice; conditions: Mus musculus, completely blocks the basanoid formation, read-out: EC50 to block basanoid formation
Experimental: Compounds of the invention are tested from their ability to treat non-melanoma skin cancer, i.e. basal cell carcinoma lesions using the skin punch assay. Mouse embryos from Ptch^+/−-LacZ mice, are collected and killed at late gestation (embryonic day 17.5) and their skins excised. Circular punches (4 mm in diameter are placed in a collagen-coated Transwell (BIOCOAT cell Culture Insert, Becton Dickinson Labware, Bedford, Mass.) and cultured at the air-liquid interface, with the epidermis side facing up. The culture medium contains 5% FBS in DMEM/F12 (3:1) with added epidermal growth factor, insulin, and hydrocortisone. To induce formation of basaloid nests, punches are grown in the presence of 1-2 μg/ml Shh for 4 or more days. Effects of compounds of the invention are tested by adding at the time of Shh addition or after 6 days of Shh pretreatment. Compounds of the invention show full inhibition (preventing lesion formation) at concentrations of 1 μM or less.

[2] = test system: lymphoma cells expressing luciferase; test: Inhibiting Hh pathway abrogates lymphoma expansion in vivo (bioluminescence imaging); set-up: species or system syngeneic C57BL/6 mice; conditions: 50 mg/kg/day
Experimental: Stroma produced hedgehog ligands are important growth and survival factors for primary lymphoma cells under in-vitro culture conditions. Growth and expansion of lymphoma cells in-vivo is also dependent on Hh signalling. 1e6 lymphoma cells expressing luciferase were injected into syngeneic C57BL/6 mice. […] Luciferase levels were measured by bioluminescence imaging 3 times per week. […] Therefore we conclude that hedgehog pathway inhibition reduces lymphoma growth in mice.

Cc1c(C(=O)Nc2ccc(N3C[C@@H](C)O[C@@H](C)C3)nc2)cccc1-c1ccc(OC(F)(F)F)cc1 [Compound 153, N-(6-((2R,6S)-2,6-dimethylmorpholino)pyridin-3-yl)-2-methyl-4′-(trifluoromethoxy)biphenyl-3-carboxamide]
EC50 [1]: < 200 nM
lymphoma cell expansion (full efficacy) [2]: completely blocks lymphoma cell expansion
